Data: ChEMBL document CHEMBL1201862, “PubChem BioAssay data set” (2004)
Activity calls are given as the source filed them.

Columns and labels:
[1] = biological target: Interleukin-1 receptor-associated kinase 4 (Homo sapiens, UniProt Q9NWZ3); type: functional
[2] = biological target: Serine/threonine-protein kinase N2 (Homo sapiens, UniProt Q16513); type: functional
[3] = biological target: RAC-gamma serine/threonine-protein kinase (Homo sapiens, UniProt Q9Y243); type: functional
[4] = biological target: Maternal embryonic leucine zipper kinase (Homo sapiens, UniProt Q14680); type: functional
[5] = biological target: cAMP-dependent protein kinase catalytic subunit alpha (Homo sapiens, UniProt P17612); type: functional
[6] = biological target: Serine/threonine-protein kinase Nek2 (Homo sapiens, UniProt P51955); type: functional
[7] = biological target: BDNF/NT-3 growth factors receptor (Homo sapiens, UniProt Q16620); type: functional;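 further: NTRK2 measured as one member of a broad kinome-wide kinase profiling panel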
[8] = biological target: Interleukin-1 receptor-associated kinase 1 (Homo sapiens, UniProt P51617); type: functional;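 further: IRAK1 tested as one member of a kinome panel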
[9] = biological target: Ribosomal protein S6 kinase alpha-3 (Homo sapiens, UniProt P51812); type: functional;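 further: measured within a kinome-wide profiling panel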
[10] = biological target: Proto-oncogene tyrosine-protein kinase Src (Homo sapiens, UniProt P12931); type: functional;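 further: SRC entry within a kinome-wide kinase profiling panel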
[11] = biological target: cGMP-dependent protein kinase 1 (Homo sapiens, UniProt Q13976); type: functional;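 further: value from a kinome panel screen with PRKG1 as the panel member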
[12] = biological target: Tyrosine-protein kinase ITK/TSK (Homo sapiens, UniProt Q08881); type: functional;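 further: affinity for ITK measured as one member of a broad kinase panel profiling binding across the kinome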
[13] = biological target: Serine/threonine-protein kinase D2 (Homo sapiens, UniProt Q9BZL6); type: functional;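 further: measured against PRKD2 as one member of a kinome-wide kinase profiling panel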
[14] = biological target: Protein kinase C gamma type (Homo sapiens, UniProt P05129); type: functional
[15] = biological target: Serine/threonine-protein kinase Nek4 (Homo sapiens, UniProt P51957); type: functional
[16] = biological target: STE20-like serine/threonine-protein kinase (Homo sapiens, UniProt Q9H2G2); type: functional
[17] = biological target: Dual specificity tyrosine-phosphorylation-regulated kinase 3 (Homo sapiens, UniProt O43781); type: functional;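 further: measured as one member of a broad kinase panel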
[18] = biological target: Mitogen-activated protein kinase 13 (Homo sapiens, UniProt O15264); type: functional
[19] = biological target: Serine/threonine-protein kinase D3 (Homo sapiens, UniProt O94806); type: functional;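 further: determined within a kinase panel screen, with PRKCN as the panel member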
[20] = biological target: Serine/threonine-protein kinase pim-2 (Homo sapiens, UniProt Q9P1W9); type: functional;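 further: value comes from a broad kinase panel profiling study in which PIM2 was one of the panel members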
[21] = biological target: Tyrosine-protein kinase Lck (Homo sapiens, UniProt P06239); type: functional;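 further: lck was assayed as one member of a kinase panel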
[22] = biological target: Tyrosine-protein kinase receptor UFO (Homo sapiens, UniProt P30530); type: functional
[23] = biological target: Serine/threonine-protein kinase Chk1 (Homo sapiens, UniProt O14757); type: functional;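 further: measured as one member of a kinome-wide kinase profiling panel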
[24] = biological target: Insulin receptor (Homo sapiens, UniProt P06213); type: functional;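 further: insulin receptor kinase tested as one member of a kinome-wide kinase panel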
[25] = biological target: Testis-specific serine/threonine-protein kinase 1 (Homo sapiens, UniProt Q9BXA7); type: functional
[26] = biological target: Tyrosine-protein kinase FRK (Homo sapiens, UniProt P42685); type: functional;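 further: FRK tested as one member of a kinome panel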
[27] = biological target: Serine/threonine-protein kinase MRCK alpha (Homo sapiens, UniProt Q5VT25); type: functional
[28] = biological target: Tyrosine-protein kinase Lyn (Homo sapiens, UniProt P07948); type: functional;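 further: lyn as one member of a kinase panel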
[29] = biological target: Tyrosine-protein kinase BTK (Homo sapiens, UniProt Q06187); type: functional
[30] = biological target: Vascular endothelial growth factor receptor 1 (Homo sapiens, UniProt P17948); type: functional;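 further: measured within a kinome-wide profiling panel, FLT1 as the panel member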
[31] = biological target: Rho-associated protein kinase 1 (Homo sapiens, UniProt Q13464); type: functional;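 further: measured within a broad kinome-wide panel profiling many kinases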
[32] = biological target: Receptor-type tyrosine-protein kinase FLT3 (Homo sapiens, UniProt P36888); type: functional;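 further: FLT3 was tested as one member of a kinome-wide kinase panel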
[33] = biological target: Death-associated protein kinase 3 (Homo sapiens, UniProt O43293); type: functional;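 further: measured as one member of a kinome-wide profiling panel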
[34] = biological target: Tyrosine-protein kinase SYK (Homo sapiens, UniProt P43405); type: functional
[35] = biological target: LIM domain kinase 1 (Homo sapiens, UniProt P53667); experiment: Navigating the Kinome. Panel member name: LIMK1; type: functional
[36] = biological target: MAP/microtubule affinity-regulating kinase 3 (Homo sapiens, UniProt P27448); type: functional;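 further: MARK3 affinity measured as one member of a kinome panel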
[37] = biological target: Mast/stem cell growth factor receptor Kit (Homo sapiens, UniProt P10721); type: functional;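 further: KIT entry within a kinase panel assay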
[38] = biological target: Lymphokine-activated killer T-cell-originated protein kinase (Homo sapiens, UniProt Q96KB5); type: functional;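 further: value comes from a kinase panel screen in which TOPK was one of the panel members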
[39] = biological target: Tyrosine-protein kinase JAK3 (Homo sapiens, UniProt P52333); type: functional
[40] = biological target: Tyrosine-protein kinase Fer (Homo sapiens, UniProt P16591); type: functional;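 further: FER tested as one member of a kinome panel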
[41] = biological target: 5'-AMP-activated protein kinase catalytic subunit alpha-1 (Homo sapiens, UniProt Q13131); type: functional
[42] = biological target: Tyrosine-protein kinase ABL1 (Homo sapiens, UniProt P00519); type: functional
[43] = biological target: Epidermal growth factor receptor (Homo sapiens, UniProt P00533)
[44] = biological target: MAP kinase-activated protein kinase 2 (Homo sapiens, UniProt P49137); type: functional;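 further: measured as one member of a kinome-wide kinase panel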
[45] = biological target: Ribosomal protein S6 kinase alpha-5 (Homo sapiens, UniProt O75582); type: functional
[46] = biological target: Dual specificity tyrosine-phosphorylation-regulated kinase 1A (Homo sapiens, UniProt Q13627); type: functional;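 further: measured against DYRK1A as one member of a broad kinome profiling panel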
[47] = biological target: Calcium/calmodulin-dependent protein kinase type 1 (Homo sapiens, UniProt Q14012); type: functional

Sequence of Tyrosine-protein kinase Lyn (P07948 whole entry): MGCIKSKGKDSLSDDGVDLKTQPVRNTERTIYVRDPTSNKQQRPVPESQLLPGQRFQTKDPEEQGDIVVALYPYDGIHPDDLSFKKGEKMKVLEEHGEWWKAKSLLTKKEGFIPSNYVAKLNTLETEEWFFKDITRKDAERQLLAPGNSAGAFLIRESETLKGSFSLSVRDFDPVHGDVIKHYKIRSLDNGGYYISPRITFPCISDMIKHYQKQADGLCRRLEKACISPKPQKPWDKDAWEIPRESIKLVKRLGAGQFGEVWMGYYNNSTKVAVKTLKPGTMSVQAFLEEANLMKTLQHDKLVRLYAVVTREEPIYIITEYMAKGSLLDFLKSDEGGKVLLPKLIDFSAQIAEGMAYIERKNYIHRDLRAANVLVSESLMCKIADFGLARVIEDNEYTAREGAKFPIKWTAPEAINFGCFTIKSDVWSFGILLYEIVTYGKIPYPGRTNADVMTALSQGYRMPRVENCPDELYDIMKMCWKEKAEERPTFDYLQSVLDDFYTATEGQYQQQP
Sequence of RAC-gamma serine/threonine-protein kinase (Q9Y243 whole entry): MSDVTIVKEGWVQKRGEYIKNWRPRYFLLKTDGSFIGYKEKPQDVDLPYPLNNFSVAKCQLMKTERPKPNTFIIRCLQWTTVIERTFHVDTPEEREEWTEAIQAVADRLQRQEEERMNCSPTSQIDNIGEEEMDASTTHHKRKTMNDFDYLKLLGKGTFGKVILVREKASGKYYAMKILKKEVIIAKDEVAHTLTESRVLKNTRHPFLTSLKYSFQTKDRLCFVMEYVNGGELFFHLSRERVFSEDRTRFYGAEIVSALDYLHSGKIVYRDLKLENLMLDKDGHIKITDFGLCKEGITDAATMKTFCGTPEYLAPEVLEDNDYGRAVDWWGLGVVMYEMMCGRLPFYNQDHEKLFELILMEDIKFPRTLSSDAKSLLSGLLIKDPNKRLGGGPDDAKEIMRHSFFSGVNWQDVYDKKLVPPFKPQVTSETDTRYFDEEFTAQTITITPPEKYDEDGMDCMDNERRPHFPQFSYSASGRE
Sequence of Interleukin-1 receptor-associated kinase 1 (P51617 whole entry): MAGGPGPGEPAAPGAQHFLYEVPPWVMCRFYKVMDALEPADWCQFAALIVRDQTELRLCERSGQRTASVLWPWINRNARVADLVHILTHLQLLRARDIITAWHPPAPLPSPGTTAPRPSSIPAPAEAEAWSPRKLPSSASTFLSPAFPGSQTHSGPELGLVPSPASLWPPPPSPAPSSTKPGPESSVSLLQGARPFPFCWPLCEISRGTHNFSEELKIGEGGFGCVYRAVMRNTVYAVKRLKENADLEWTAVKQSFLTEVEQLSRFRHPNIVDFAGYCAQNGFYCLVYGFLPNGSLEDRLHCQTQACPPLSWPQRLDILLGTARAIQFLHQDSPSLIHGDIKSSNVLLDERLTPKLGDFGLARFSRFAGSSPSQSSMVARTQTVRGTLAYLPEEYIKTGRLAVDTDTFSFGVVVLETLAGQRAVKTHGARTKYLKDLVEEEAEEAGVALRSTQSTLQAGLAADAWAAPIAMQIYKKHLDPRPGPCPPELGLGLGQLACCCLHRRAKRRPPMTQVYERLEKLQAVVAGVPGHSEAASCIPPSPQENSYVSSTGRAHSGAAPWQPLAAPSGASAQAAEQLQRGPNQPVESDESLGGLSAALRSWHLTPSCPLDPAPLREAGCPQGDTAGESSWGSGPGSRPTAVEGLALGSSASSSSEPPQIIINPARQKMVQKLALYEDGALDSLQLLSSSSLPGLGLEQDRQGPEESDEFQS
Sequence of MAP kinase-activated protein kinase 2 (P49137 whole entry): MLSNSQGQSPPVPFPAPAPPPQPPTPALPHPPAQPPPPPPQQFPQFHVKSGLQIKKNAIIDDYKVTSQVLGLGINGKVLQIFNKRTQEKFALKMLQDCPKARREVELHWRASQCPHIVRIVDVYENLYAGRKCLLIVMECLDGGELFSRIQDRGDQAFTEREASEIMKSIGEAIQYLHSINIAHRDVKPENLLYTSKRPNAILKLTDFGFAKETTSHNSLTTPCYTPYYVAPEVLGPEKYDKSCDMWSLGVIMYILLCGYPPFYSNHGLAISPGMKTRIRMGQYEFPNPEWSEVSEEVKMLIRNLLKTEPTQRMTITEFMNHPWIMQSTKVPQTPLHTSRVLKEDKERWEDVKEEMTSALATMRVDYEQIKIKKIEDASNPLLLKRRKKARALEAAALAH
Sequence of Death-associated protein kinase 3 (O43293 whole entry): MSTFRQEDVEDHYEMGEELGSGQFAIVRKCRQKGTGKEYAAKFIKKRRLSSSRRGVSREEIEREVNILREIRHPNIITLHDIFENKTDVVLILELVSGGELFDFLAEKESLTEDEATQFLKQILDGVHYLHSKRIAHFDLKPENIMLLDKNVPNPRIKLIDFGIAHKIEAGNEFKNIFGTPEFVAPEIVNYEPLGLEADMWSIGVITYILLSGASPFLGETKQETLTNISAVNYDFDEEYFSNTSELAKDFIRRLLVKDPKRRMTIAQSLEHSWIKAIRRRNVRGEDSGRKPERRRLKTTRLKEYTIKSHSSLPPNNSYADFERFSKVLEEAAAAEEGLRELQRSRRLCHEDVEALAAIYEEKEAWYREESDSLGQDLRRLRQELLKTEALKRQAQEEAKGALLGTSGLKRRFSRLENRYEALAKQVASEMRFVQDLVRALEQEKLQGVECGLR
Sequence of Mast/stem cell growth factor receptor Kit (P10721 whole entry): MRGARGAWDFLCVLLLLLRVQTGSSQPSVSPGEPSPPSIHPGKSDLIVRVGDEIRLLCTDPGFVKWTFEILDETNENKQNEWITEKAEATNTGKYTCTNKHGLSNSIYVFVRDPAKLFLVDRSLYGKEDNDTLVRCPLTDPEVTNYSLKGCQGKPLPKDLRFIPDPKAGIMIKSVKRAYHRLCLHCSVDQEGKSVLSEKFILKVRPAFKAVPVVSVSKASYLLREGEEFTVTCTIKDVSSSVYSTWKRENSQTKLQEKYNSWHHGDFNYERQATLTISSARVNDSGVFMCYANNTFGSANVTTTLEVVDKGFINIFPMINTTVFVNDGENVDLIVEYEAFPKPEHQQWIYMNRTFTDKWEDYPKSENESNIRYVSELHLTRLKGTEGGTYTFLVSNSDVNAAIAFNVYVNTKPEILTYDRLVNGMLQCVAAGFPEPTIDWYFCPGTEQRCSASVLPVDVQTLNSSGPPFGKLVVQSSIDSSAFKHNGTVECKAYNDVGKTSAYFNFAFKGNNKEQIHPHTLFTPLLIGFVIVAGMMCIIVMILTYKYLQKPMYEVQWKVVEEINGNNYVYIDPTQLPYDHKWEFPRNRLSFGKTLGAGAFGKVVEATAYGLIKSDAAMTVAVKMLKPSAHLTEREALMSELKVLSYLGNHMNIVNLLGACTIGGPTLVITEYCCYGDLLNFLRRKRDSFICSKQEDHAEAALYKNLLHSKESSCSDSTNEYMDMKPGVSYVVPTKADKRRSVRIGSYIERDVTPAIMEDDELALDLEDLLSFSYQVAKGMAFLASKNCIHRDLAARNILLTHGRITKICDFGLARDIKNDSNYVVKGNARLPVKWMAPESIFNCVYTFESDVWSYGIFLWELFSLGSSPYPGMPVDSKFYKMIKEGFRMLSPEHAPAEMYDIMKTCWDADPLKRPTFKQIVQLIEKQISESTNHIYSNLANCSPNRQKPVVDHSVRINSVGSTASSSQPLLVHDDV
Sequence of Lymphokine-activated killer T-cell-originated protein kinase (Q96KB5 whole entry): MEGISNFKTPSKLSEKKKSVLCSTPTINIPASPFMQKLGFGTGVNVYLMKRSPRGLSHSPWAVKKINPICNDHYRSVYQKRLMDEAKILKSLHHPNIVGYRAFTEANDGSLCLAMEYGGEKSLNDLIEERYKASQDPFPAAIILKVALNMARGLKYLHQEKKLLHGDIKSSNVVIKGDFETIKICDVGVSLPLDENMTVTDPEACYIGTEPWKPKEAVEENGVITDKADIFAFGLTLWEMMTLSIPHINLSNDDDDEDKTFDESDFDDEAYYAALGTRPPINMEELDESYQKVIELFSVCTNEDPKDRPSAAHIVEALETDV
Sequence of Testis-specific serine/threonine-protein kinase 1 (Q9BXA7 whole entry): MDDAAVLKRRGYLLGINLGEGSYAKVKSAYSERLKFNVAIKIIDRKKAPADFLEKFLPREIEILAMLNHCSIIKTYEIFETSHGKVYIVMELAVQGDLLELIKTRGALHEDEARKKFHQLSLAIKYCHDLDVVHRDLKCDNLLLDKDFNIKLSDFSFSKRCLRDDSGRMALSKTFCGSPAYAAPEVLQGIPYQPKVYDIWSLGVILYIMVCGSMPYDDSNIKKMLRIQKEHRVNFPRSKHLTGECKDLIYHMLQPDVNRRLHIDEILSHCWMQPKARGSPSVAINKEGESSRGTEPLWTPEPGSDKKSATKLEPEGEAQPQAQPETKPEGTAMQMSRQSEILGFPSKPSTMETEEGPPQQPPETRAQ

NC(=O)Cn1cc(-c2cc(-c3cc4ccccc4s3)c3[nH]ncc3c2)c2nc(N)ncc21
Ki [1]: > 10000 nM (inactive) | Ki [2]: 79.4 nM (active) | Ki [3]: > 10000 nM (inactive) | Ki [4]: > 1580 nM (inactive) | Ki [5]: 631 nM (active) | Ki [6]: > 10000 nM (inactive) | Ki [7]: > 5010 nM (inactive) | Ki [8]: 7940 nM (active) | Ki [9]: 5010 nM (active) | Ki [10]: > 2000 nM (inactive) | Ki [11]: 398 nM (active) | Ki [12]: > 1580 nM (inactive) | Ki [13]: 794 nM (active) | Ki [14]: 1580 nM (active) | Ki [15]: 3980 nM (active) | Ki [16]: 1580 nM (active) | Ki [17]: 631 nM (active) | Ki [18]: 794 nM (active) | Ki [19]: 1000 nM (active) | Ki [20]: > 1580 nM (inactive) | Ki [21]: > 2510 nM (inactive) | Ki [22]: > 2000 nM (inactive) | Ki [23]: > 7940 nM (inactive) | Ki [24]: > 5010 nM (inactive) | Ki [25]: > 1580 nM (inactive) | Ki [26]: > 2510 nM (inactive) | Ki [27]: 3980 nM (active) | Ki [28]: > 1580 nM (inactive) | Ki [29]: > 1260 nM (inactive) | Ki [30]: > 398 nM (inactive) | Ki [31]: 1580 nM (active) | Ki [32]: 1260 nM (active) | Ki [33]: 1000 nM (active) | Ki [34]: 200 nM (active) | Ki [35]: 3980 nM (active) | Ki [36]: 398 nM (active) | Ki [37]: > 1260 nM (inactive) | Ki [38]: > 10000 nM (inactive) | Ki [39]: > 1580 nM (inactive) | Ki [40]: > 1580 nM (inactive) | Ki [41]: 631 nM (active) | Ki [42]: > 631 nM (inactive) | Ki [43]: > 2000 nM (inactive) | Ki [44]: 25.1 nM (active) | Ki [45]: > 2000 nM (inactive) | Ki [46]: 100 nM (active) | Ki [47]: > 5010 nM (inactive)
